Results taken from the supplement of paper PMC10307832.

How the values were obtained:
Assay in all cases: relative viability (nuclei count vs DMSO), 5 days (fraction); higher = more cells survive
PC-14 = tested on: PC-14
Outline: (§1)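 One day after seeding in 1536-well plates, lung cancer cell lines were dosed by pin tool. Dosing was either single-drug or a fixed anchor-drug dose plus five library-drug doses (not always all listed) in √10 steps. After 5 days, nuclei were stained in one fix-and-stain step and counted on 4× images, and relative viability is the nuclei count of treated wells over that of vehicle wells, given as the median of duplicate plates.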

NCI-H2085 = tested on: NCI-H2085
Outline: as §1

NCI-H322M = tested on: NCI-H322M
Outline: as §1

NCI-H647 = tested on: NCI-H647
Outline: as §1

NCI-H2087 = tested on: NCI-H2087
Outline: as §1

NCI-H1944 = tested on: NCI-H1944
Outline: as §1

LOU-NH91 = tested on: LOU-NH91
Outline: as §1

NCI-H1648 = tested on: NCI-H1648
Outline: as §1

ABC-1 = tested on: ABC-1
Outline: as §1

201T = tested on: 201T
Outline: as §1

NCI-H596 = tested on: NCI-H596
Outline: as §1

HCC-44 = tested on: HCC-44
Outline: as §1

NCI-H2170 = tested on: NCI-H2170
Outline: as §1

PC-3 [JPC-3] = tested on: PC-3 [JPC-3]
Outline: as §1

NCI-H2023 = tested on: NCI-H2023
Outline: as §1

NCI-H1437 = tested on: NCI-H1437
Outline: as §1

NCI-H1734 = tested on: NCI-H1734
Outline: as §1

LK-2 = tested on: LK-2
Outline: as §1

HCC-78 = tested on: HCC-78
Outline: as §1

SK-LU-1 = tested on: SK-LU-1
Outline: as §1

NCI-H1651 = tested on: NCI-H1651
Outline: as §1

HCC-366 = tested on: HCC-366
Outline: as §1

Nc1cccc2c1CN(C1CCC(=O)NC1=O)C2=O (stereo not given) [Lenalidomide] + Nc1ncn([C@H]2C[C@H](O)[C@@H](CO)O2)c(=O)n1 [Decitabine] (partner 2 µM)
relative viability (PC-14; first compound 0.253 µM): 0.199 | relative viability (PC-14; first compound 0.8 µM): 0.189 | relative viability (PC-14; first compound 2.53 µM): 0.24 | relative viability (PC-14; first compound 8 µM): 0.226 | relative viability (NCI-H2085; first compound 0.253 µM): 0.546 | relative viability (NCI-H2085; first compound 0.8 µM): 0.542 | relative viability (NCI-H2085; first compound 2.53 µM): 0.529 | relative viability (NCI-H2085; first compound 8 µM): 0.566 | relative viability (NCI-H322M; first compound 0.253 µM): 0.702 | relative viability (NCI-H322M; first compound 0.8 µM): 0.78 | relative viability (NCI-H322M; first compound 2.53 µM): 0.725 | relative viability (NCI-H322M; first compound 8 µM): 0.688 | relative viability (NCI-H647; first compound 0.253 µM): 0.426 | relative viability (NCI-H647; first compound 0.8 µM): 0.318 | relative viability (NCI-H647; first compound 2.53 µM): 0.428 | relative viability (NCI-H647; first compound 8 µM): 0.446 | relative viability (NCI-H2087; first compound 0.253 µM): 0.31 | relative viability (NCI-H2087; first compound 2.53 µM): 0.303 | relative viability (NCI-H2087; first compound 8 µM): 0.292 | relative viability (NCI-H1944; first compound 0.253 µM): 0.446 | relative viability (NCI-H1944; first compound 2.53 µM): 0.457 | relative viability (NCI-H1944; first compound 8 µM): 0.393 | relative viability (LOU-NH91; first compound 0.253 µM): 0.815 | relative viability (LOU-NH91; first compound 0.8 µM): 0.826 | relative viability (LOU-NH91; first compound 2.53 µM): 0.831 | relative viability (LOU-NH91; first compound 8 µM): 0.765 | relative viability (NCI-H1648; first compound 0.253 µM): 0.562 | relative viability (NCI-H1648; first compound 2.53 µM): 0.557 | relative viability (NCI-H1648; first compound 8 µM): 0.411 | relative viability (ABC-1; first compound 0.253 µM): 0.929 | relative viability (ABC-1; first compound 0.8 µM): 1.05 | relative viability (ABC-1; first compound 2.53 µM): 0.827 | relative viability (ABC-1; first compound 8 µM): 0.939 | relative viability (201T; first compound 0.253 µM): 0.874 | relative viability (201T; first compound 0.8 µM): 0.927 | relative viability (201T; first compound 2.53 µM): 0.88 | relative viability (201T; first compound 8 µM): 0.816 | relative viability (NCI-H596; first compound 0.253 µM): 0.85 | relative viability (NCI-H596; first compound 0.8 µM): 1.46 | relative viability (NCI-H596; first compound 2.53 µM): 1.06 | relative viability (NCI-H596; first compound 8 µM): 0.95 | relative viability (HCC-44; first compound 0.253 µM): 0.946 | relative viability (HCC-44; first compound 0.8 µM): 0.781 | relative viability (HCC-44; first compound 2.53 µM): 1.01 | relative viability (HCC-44; first compound 8 µM): 0.853 | relative viability (NCI-H2170; first compound 0.253 µM): 0.49 | relative viability (NCI-H2170; first compound 0.8 µM): 0.429 | relative viability (NCI-H2170; first compound 2.53 µM): 0.469 | relative viability (NCI-H2170; first compound 8 µM): 0.471 | relative viability (PC-3 [JPC-3]; first compound 0.253 µM): 0.848 | relative viability (PC-3 [JPC-3]; first compound 0.8 µM): 0.807 | relative viability (PC-3 [JPC-3]; first compound 2.53 µM): 0.874 | relative viability (PC-3 [JPC-3]; first compound 8 µM): 0.878 | relative viability (NCI-H2023; first compound 0.253 µM): 0.205 | relative viability (NCI-H2023; first compound 0.8 µM): 0.269 | relative viability (NCI-H2023; first compound 2.53 µM): 0.248 | relative viability (NCI-H2023; first compound 8 µM): 0.231 | relative viability (NCI-H1437; first compound 0.253 µM): 0.556 | relative viability (NCI-H1437; first compound 0.8 µM): 0.5 | relative viability (NCI-H1437; first compound 2.53 µM): 0.59 | relative viability (NCI-H1437; first compound 8 µM): 0.648 | relative viability (NCI-H1734; first compound 0.253 µM): 0.508 | relative viability (NCI-H1734; first compound 0.8 µM): 0.478 | relative viability (NCI-H1734; first compound 2.53 µM): 0.568 | relative viability (NCI-H1734; first compound 8 µM): 0.485 | relative viability (LK-2; first compound 0.253 µM): 0.312 | relative viability (LK-2; first compound 0.8 µM): 0.177 | relative viability (LK-2; first compound 2.53 µM): 0.36 | relative viability (LK-2; first compound 8 µM): 0.187 | relative viability (HCC-78; first compound 0.253 µM): 0.731 | relative viability (HCC-78; first compound 0.8 µM): 0.637 | relative viability (HCC-78; first compound 2.53 µM): 0.703 | relative viability (HCC-78; first compound 8 µM): 0.558 | relative viability (SK-LU-1; first compound 0.253 µM): 0.614 | relative viability (SK-LU-1; first compound 0.8 µM): 0.58 | relative viability (SK-LU-1; first compound 2.53 µM): 0.72 | relative viability (SK-LU-1; first compound 8 µM): 0.603 | relative viability (NCI-H1651; first compound 0.253 µM): 0.631 | relative viability (NCI-H1651; first compound 0.8 µM): 0.5 | relative viability (NCI-H1651; first compound 2.53 µM): 0.645 | relative viability (NCI-H1651; first compound 8 µM): 0.582 | relative viability (HCC-366; first compound 0.253 µM): 0.337 | relative viability (HCC-366; first compound 0.8 µM): 0.377 | relative viability (HCC-366; first compound 2.53 µM): 0.366 | relative viability (HCC-366; first compound 8 µM): 0.354
